Source: US20230157290A1, “ALKENE-CONTAINING CARBOXYLATE COMPOUND AND USE THEREOF” (SHENYANG SINOCHEM AGROCHEMICALS R&D CO., LTD, priority 2019, published 2023)

Legend:
Type in all cases: in vivo
Conditions in all cases: after emergence
piemarker = assay: Herbicidal activity, post-emergence stem and leaf spray, greenhouse: piemarker control
Method: (§1) Seeds of broadleaf weeds (zinnia and piemarker) or grassy weeds (green bristlegrass and barnyard grass) were respectively sown in a paper cup having a diameter of 7 cm and containing nutrient soil; after sowing, the seeds were covered with 1 cm of soil, the soil was pressed and watered, and then the seeds were cultivated in a greenhouse according to a conventional method; and stems and leaves were sprayed after 2-3 leaf stage of the weeds.
(§2) After the original medicinal acetone was dissolved, the test requires to use 1‰ of Tween 80 to stand in running water to prepare the solution to be tested with a required concentration. According to the design dose of the test, spray treatment was carried out on a track-type crop sprayer (designed and produced by British Engineer Research Ltd.) (spray pressure is 1.95 kg/cm^2, spray volume is 500 L/hm^2 and track speed is 1.48 km/h). The test was repeated for three times. The test material was treated and then placed in an operation hall. The medicinal liquid was naturally dried in the shade, and then was placed in a greenhouse and managed according to the conventional method. The response of the weeds to the drug was observed and recorded. After treatment, the control effects of the test drug on the weeds were visually inspected regularly, expressed by 0-100%. “0” represents no control effect and “100%4” represents complete killing.
According to the above test method, part of the compounds of the formula and KC1 are selected for activity test of controlling the piemarker.

barnyard grass = assay: Herbicidal activity, post-emergence stem and leaf spray, greenhouse: barnyard grass control
Method: as §1, §2
According to the above test method, part of the compounds of the formula I and KC1 or KC2 are selected for activity test of controlling the barnyard grass.

zinnia = assay: Herbicidal activity, post-emergence stem and leaf spray, greenhouse: zinnia control
Method: as §1, §2
According to the above test method, part of the compounds of the formula I and KC1 are selected for activity test of controlling the zinnia.

green bristlegrass = assay: Herbicidal activity, post-emergence stem and leaf spray, greenhouse: green bristlegrass control
Method: as §1, §2
According to the above test method, part of the compounds of the formula I and KC1 or KC2 are selected for activity test of controlling the green bristlegrass.

[1] = dose 600 g a.i./hm^2, visual, 0 = no control effect, 100% = complete killing

Compound | Piemarker control activity (control effect %) (piemarker; dose 37.5 g a.i./hm^2) [%] | Piemarker control activity (control effect %) (piemarker; dose 150 g a.i./hm^2) [%] | Piemarker control activity (control effect %) (piemarker; dose 600 g a.i./hm^2) [%] | Barnyard grass control activity (control effect %) (barnyard grass; dose 37.5 g a.i./hm^2) [%] | Barnyard grass control activity (control effect %) (barnyard grass; dose 150 g a.i./hm^2) [%] | Barnyard grass control activity (control effect %) (barnyard grass; dose 600 g a.i./hm^2) [%] | Zinnia control activity (control effect %) (zinnia; dose 37.5 g a.i./hm^2) [%] | Zinnia control activity (control effect %) (zinnia; dose 150 g a.i./hm^2) [%] | Zinnia control activity (control effect %) (zinnia; [1]) [%] | Green bristlegrass control activity (control effect %) (green bristlegrass; dose 37.5 g a.i./hm^2) [%] | Green bristlegrass control activity (control effect %) (green bristlegrass; dose 150 g a.i./hm^2) [%] | Green bristlegrass control activity (control effect %) (green bristlegrass; dose 600 g a.i./hm^2) [%]
Cc1nn(C)c(OC(=O)/C=C/c2ccccc2)c1C(=O)c1ccc(C(F)(F)F)cc1S(C)(=O)=O [Compound 1-1] | 90 | 95 | 100 |  |  |  |  |  |  |  |  | 
Cc1c(S(C)(=O)=O)ccc(C(=O)c2cnn(C)c2OC(=O)/C=C/c2ccc3c(c2)OCO3)c1Cl [Compound 1-42] | 90 | 95 | 100 | 80 | 95 | 100 | 100 | 100 | 100 |  |  | 
COCCOCc1c(S(C)(=O)=O)ccc(C(=O)c2c(C)nn(C)c2OC(=O)/C=C/c2ccc(-c3ccccc3)cc2)c1Cl [Compound 1-81] |  |  |  | 80 | 90 | 95 | 90 | 95 | 100 |  |  | 
COCCOCc1c(S(C)(=O)=O)ccc(C(=O)c2c(C)nn(C)c2OC(=O)/C=C/c2ccc3c(c2)OCO3)c1Cl [Compound 1-82] |  |  |  | 90 | 95 | 100 |  |  |  |  |  | 
COCCOc1c(S(C)(=O)=O)ccc(C(=O)c2c(C)nn(C)c2OC(=O)/C=C/c2ccccc2)c1C [Compound 1-259] | 100 | 100 |  | 100 | 100 |  |  |  |  | 100 | 100 | 
CCOc1c(S(C)(=O)=O)ccc(C(=O)c2c(C)nn(C)c2OC(=O)/C=C/c2ccccc2)c1C [Compound 1-280] |  |  |  | 85 | 95 | 100 |  |  |  | 80 | 90 | 100
Cc1c(C(=O)c2cnn(C)c2OC(=O)/C=C/c2ccccc2)ccc(S(C)(=O)=O)c1C1=NOCC1 [Compound 1-292] | 90 | 90 | 95 | 90 | 95 | 100 |  |  |  | 90 | 90 | 95
Cc1nn(C)c(OC(=O)C2=CCCCC2)c1C(=O)c1ccc(S(C)(=O)=O)c(OCC(F)(F)F)c1C [Compound 2-37] |  |  |  | 95 | 100 | 100 |  |  |  |  |  | 
COCCOc1c(S(C)(=O)=O)ccc(C(=O)c2cnn(C)c2OC(=O)C2=CCCCC2)c1C [Compound 2-67] |  |  |  | 90 | 100 | 100 |  |  |  |  |  | 
Cc1nn(C)c(OC(=O)C2=CCCCC2)c1C(=O)c1ccc(S(C)(=O)=O)c(OCC2CCCO2)c1C (stereo not shown) [Compound 2-73] |  |  |  | 95 | 100 | 100 |  |  |  |  |  | 
Cc1c(C(=O)c2cnn(C)c2OC(=O)C2=CCCCC2)ccc(S(C)(=O)=O)c1C1=NOCC1 [Compound 2-121] |  |  |  |  |  |  |  |  |  | 80 | 90 | 98
Cc1c(C(=O)c2cnn(C)c2OC(=O)C2=CCCC2)ccc(S(C)(=O)=O)c1C1=NOCC1 [Compound 2-123] |  |  |  | 100 | 100 | 100 |  |  |  | 90 | 100 | 100
Cc1nn(C)c(OC(=O)/C=C/c2ccccc2)c1C(=O)c1ccc([N+](=O)[O-])cc1Cl [KC1, reference compound] | 20 | 70 | 100 | 0 | 0 | 0 | 0 | 0 | 0 | 10 | 10 | 10
Cn1nc(C2CC2)c(C(=O)c2ccc(C(F)(F)F)cc2S(C)(=O)=O)c1OC(=O)C1=CCCCC1 [KC2, reference compound] |  |  |  | 60 | 90 |  |  |  |  | 30 | 60 | 
